Measurements published in US4332794A, “6"-Deoxydibekacin, 4",6"-dideoxydibekacin and 1-N-aminoacyl derivatives thereof, and the production of these new compounds” (Zaidan Hojin Biseibutsu Kagaku Kenkyu Kai, priority 1979, dated 1982).
In brackets after ≈: the same amount, converted by molar mass. Where two headings read alike, the source gives them in different places.

Columns and labels:
[1] = system: Pseudomonas aeruginosa PST1; assay: MIC, serial dilution on nutrient agar; assay type: cell-based; settings: PST1, 18 h
[2] = system: Staphylococcus aureus Smith; assay: MIC, serial dilution on nutrient agar; assay type: cell-based; settings: 37° C., 18 hours
[3] = system: Pseudomonas aeruginosa TI-13; assay: MIC, serial dilution on nutrient agar; assay type: cell-based
[4] = system: Escherichia coli K-12 LA 290 R55; assay: microbe, parasite or virus in culture; assay type: cell-based; settings: K12LA290R55, 18 h
Escherichia coli K-12 R5 = assay: microbe, parasite or virus in culture; assay type: cell-based; settings: K12R5, 18 h
Providencia Pv 16 = assay: MIC, serial dilution on nutrient agar; assay type: cell-based; settings: PV16, 18 h
[5] = system: Pseudomonas aeruginosa K-Ps102; assay: MIC, serial dilution on nutrient agar; assay type: cell-based
[6] = system: Pseudomonas aeruginosa No. 12; assay: MIC, serial dilution on nutrient agar; assay type: cell-based
[7] = system: Bacillus cereus ATCC 10702; assay: MIC, serial dilution on nutrient agar; assay type: cell-based
Proteus rettgeri GN466 = assay: MIC, serial dilution on nutrient agar; assay type: cell-based; settings: Providencia rettgeri
[8] = system: Bacillus subtilis PCI 219; assay: MIC, serial dilution on nutrient agar; assay type: cell-based; settings: PCI219, 37° C., 18 hours
[9] = system: Escherichia coli K-12 LA 290 R56; assay: microbe, parasite or virus in culture; assay type: cell-based; settings: K12LA290R56, 18 h
[10] = system: Pseudomonas aeruginosa ROS134/PU21; assay: microbe, parasite or virus in culture; assay type: cell-based; settings: ROS134/PU21, 18 h
[11] = system: Staphylococcus epidermidis 109; assay: MIC, serial dilution on nutrient agar; assay type: cell-based
[12] = system: Staphylococcus aureus APO1; assay: MIC, serial dilution on nutrient agar; assay type: cell-based
[13] = system: Pseudomonas aeruginosa B-13; assay: MIC, serial dilution on nutrient agar; assay type: cell-based; settings: B13, 18 h
[14] = system: Shigella dysenteriae JS11910; assay: MIC, serial dilution on nutrient agar; assay type: cell-based; settings: JS11910, 18 h
Escherichia coli K-12 = assay: MIC, serial dilution on nutrient agar; assay type: cell-based
intravenous LD50 in mice = settings: mouse, in vivo, estimated
Escherichia coli W677 = assay: MIC, serial dilution on nutrient agar; assay type: cell-based
[15] = system: Escherichia coli K-12 R 388; assay: MIC, serial dilution on nutrient agar; assay type: cell-based; settings: K12R388, 18 h
[16] = system: Pseudomonas aeruginosa A3; assay: MIC, serial dilution on nutrient agar; assay type: cell-based; settings: A3, 18 h
Salmonella typhi F63 = assay: MIC, serial dilution on nutrient agar; assay type: cell-based; settings: Salmonella enterica, 18 h
[17] = system: Bacillus subtilis NRRL B-558; assay: MIC, serial dilution on nutrient agar; assay type: cell-based; settings: NRRLB558, 37° C., 18 hours
Proteus rettgeri GN311 = assay: MIC, serial dilution on nutrient agar; assay type: cell-based; settings: Providencia rettgeri
[18] = system: Pseudomonas aeruginosa 99; assay: MIC, serial dilution on nutrient agar; assay type: cell-based
Sarcina lutea PCI 1001 = assay: MIC, serial dilution on nutrient agar; assay type: cell-based; settings: Micrococcus luteus
oto-toxicity = settings: compounds of this invention
[19] = system: Mycrococcus flavus FDA 16; assay: MIC, serial dilution on nutrient agar; assay type: cell-based
Escherichia coli NIHJ = assay: MIC, serial dilution on nutrient agar; assay type: cell-based
[20] = system: Pseudomonas aeruginosa H11; assay: MIC, serial dilution on nutrient agar; assay type: cell-based; settings: H11, nutrient agar, 37° C., 18 hours, read-out: MIC
[21] = system: Mycobacterium smegmatis ATCC 607; assay: MIC, serial dilution on nutrient agar; assay type: cell-based; settings: Mycolicibacterium smegmatis
[22] = system: Escherichia coli K-12 LA 290 R64; assay: MIC, serial dilution on nutrient agar; assay type: cell-based; settings: K12LA290R64, 18 h
[23] = system: Klebsiella pneumoniae 22 #3038; assay: MIC, serial dilution on nutrient agar; assay type: cell-based; settings: 18 h
[24] = system: Corynebacterium bovis 1810; assay: MIC, serial dilution on nutrient agar; assay type: cell-based
[25] = system: Escherichia coli JR66/W677; assay: MIC, serial dilution on nutrient agar; assay type: cell-based; settings: JR66/W677, 18 h
[26] = system: Salmonella enteritidis 1891; assay: MIC, serial dilution on nutrient agar; assay type: cell-based; settings: Salmonella enterica, 18 h
[27] = system: Pseudomonas aeruginosa H9; assay: MIC, serial dilution on nutrient agar; assay type: cell-based
Bacillus anthracis = assay: microbe, parasite or virus in culture; assay type: cell-based; settings: 18 h
[28] = system: Escherichia coli K-12 1410 R81; assay: MIC, serial dilution on nutrient agar; assay type: cell-based; settings: K121410R81, 18 h
Escherichia coli JR255 = assay: microbe, parasite or virus in culture; assay type: cell-based; settings: JR255, 18 h
[29] = system: Escherichia coli K-12 ML 1410; assay: MIC, serial dilution on nutrient agar; assay type: cell-based
[30] = nutrient agar, 37° C., 18 hours, read-out: MIC

Structure (SMILES): C[C@H]1O[C@H](O[C@@H]2[C@@H](O)[C@H](O[C@H]3O[C@H](CN)CC[C@H]3N)[C@@H](N)C[C@H]2N)[C@H](O)[C@@H](N)[C@@H]1O [6"-DDKB, 6"-deoxydibekacin]
- MIC [1]: > 100 µg/mL
- MIC [2]: < 0.2 µg/mL
- MIC ([3]; TI13, nutrient agar, 37° C., 18 hours, read-out: MIC): 12.5 µg/mL (≈ 28.7 µM)
- MIC [4]: > 100 µg/mL
- MIC (Escherichia coli K-12 R5): 100 µg/mL (≈ 230 µM)
- MIC (Providencia Pv 16): > 100 µg/mL
- MIC ([5]; KPS102, nutrient agar, 37° C., 18 hours, read-out: MIC): 6.25 µg/mL (≈ 14.4 µM)
- MIC ([6]; NO.12, nutrient agar, 37° C., 18 hours, read-out: MIC): 6.25 µg/mL (≈ 14.4 µM)
- MIC ([7]; ATCC10702, nutrient agar, 37° C., 18 hours, read-out: MIC): 6.25 µg/mL (≈ 14.4 µM)
- MIC (Proteus rettgeri GN466; GN466, 18 h): 3.13 µg/mL (≈ 7.19 µM)
- MIC [8]: < 0.2 µg/mL
- MIC [9]: 25 µg/mL (≈ 57.4 µM)
- MIC [10]: > 100 µg/mL
- MIC ([11]; Staphylococcus epidermidis, 109, 18 h): 1.56 µg/mL (≈ 3.58 µM)
- MIC ([12]; APO1, 18 h): 3.13 µg/mL (≈ 7.19 µM)
- MIC [13]: 50 µg/mL (≈ 115 µM)
- MIC [14]: 3.13 µg/mL (≈ 7.19 µM)
- MIC (Escherichia coli K-12; K12, 18 h): 1.56 µg/mL (≈ 3.58 µM)
- LD50 (intravenous LD50 in mice): > 60 mg/kg
- MIC (Escherichia coli W677; W677, 18 h): 1.56 µg/mL (≈ 3.58 µM)
- MIC [15]: 1.56 µg/mL (≈ 3.58 µM)
- MIC [16]: 1.56 µg/mL (≈ 3.58 µM)
- MIC (Salmonella typhi F63): 0.39 µg/mL (≈ 0.895 µM)
- MIC [17]: < 0.2 µg/mL
- MIC (Proteus rettgeri GN311; GN311, nutrient agar, 37° C., 18 hours, read-out: MIC): 6.25 µg/mL (≈ 14.4 µM)
- MIC ([18]; Pseudomonas aeruginosa, 99, nutrient agar, 37° C., 18 hours, read-out: MIC): 12.5 µg/mL (≈ 28.7 µM)
- MIC (Sarcina lutea PCI 1001; PCI1001, nutrient agar, 37° C., 18 hours, read-out: MIC): 25 µg/mL (≈ 57.4 µM)
- oto-toxicity (oto-toxicity): low oto-toxicity
- MIC [19, 30]: 25 µg/mL (≈ 57.4 µM)
- MIC (Escherichia coli NIHJ; 18 h): 1.56 µg/mL (≈ 3.58 µM)
- MIC [20]: 12.5 µg/mL (≈ 28.7 µM)
- MIC ([21]; ATCC607, 18 h): 0.78 µg/mL (≈ 1.79 µM)
- MIC [22]: 25 µg/mL (≈ 57.4 µM)
- MIC [23]: 100 µg/mL (≈ 230 µM)
- MIC ([24]; Corynebacterium bovis, 1810, nutrient agar, 37° C., 18 hours, read-out: MIC): 25 µg/mL (≈ 57.4 µM)
- MIC [25]: 100 µg/mL (≈ 230 µM)
- MIC [26]: 3.13 µg/mL (≈ 7.19 µM)
- MIC ([27]; H9, nutrient agar, 37° C., 18 hours, read-out: MIC): 12.5 µg/mL (≈ 28.7 µM)
- MIC (Bacillus anthracis): 0.39 µg/mL (≈ 0.895 µM)
- MIC [28]: 1.56 µg/mL (≈ 3.58 µM)
- MIC (Escherichia coli JR255): > 100 µg/mL
- MIC ([29]; K12ML1410, 18 h): 3.13 µg/mL (≈ 7.19 µM)

Structure (SMILES): NC[C@@H]1CC[C@@H](N)[C@@H](O[C@H]2[C@H](O)[C@@H](O[C@H]3O[C@H](CO)[C@@H](O)[C@H](N)[C@H]3O)[C@H](N)C[C@@H]2N)O1 [DKB, 3',4'-dideoxykanamycin B, reference compound]
- MIC [1]: > 100 µg/mL
- MIC [2]: < 0.2 µg/mL
- MIC ([3]; TI13, 18 h): 6.25 µg/mL (≈ 13.8 µM)
- MIC [4]: 100 µg/mL (≈ 221 µM)
- MIC (Escherichia coli K-12 R5): > 100 µg/mL
- MIC (Providencia Pv 16): > 100 µg/mL
- MIC ([5]; KPS102, 18 h): 6.25 µg/mL (≈ 13.8 µM)
- MIC ([6]; NO.12, 18 h): 6.25 µg/mL (≈ 13.8 µM)
- MIC ([7]; ATCC10702, 18 h): 3.13 µg/mL (≈ 6.93 µM)
- MIC (Proteus rettgeri GN466; GN466, nutrient agar, 37° C., 18 hours, read-out: MIC): 1.56 µg/mL (≈ 3.45 µM)
- MIC [8]: < 0.2 µg/mL
- MIC [9]: 25 µg/mL (≈ 55.4 µM)
- MIC [10]: > 100 µg/mL
- MIC ([11]; Staphylococcus epidermidis, 109, nutrient agar, 37° C., 18 hours, read-out: MIC): 1.56 µg/mL (≈ 3.45 µM)
- MIC ([12]; APO1, nutrient agar, 37° C., 18 hours, read-out: MIC): 1.56 µg/mL (≈ 3.45 µM)
- MIC [13]: 6.25 µg/mL (≈ 13.8 µM)
- MIC [14]: 3.13 µg/mL (≈ 6.93 µM)
- MIC (Escherichia coli K-12; K12, nutrient agar, 37° C., 18 hours, read-out: MIC): 1.56 µg/mL (≈ 3.45 µM)
- MIC (Escherichia coli W677; W677, nutrient agar, 37° C., 18 hours, read-out: MIC): 1.56 µg/mL (≈ 3.45 µM)
- MIC [15]: 1.56 µg/mL (≈ 3.45 µM)
- MIC [16]: 3.13 µg/mL (≈ 6.93 µM)
- MIC (Salmonella typhi F63): 0.78 µg/mL (≈ 1.73 µM)
- MIC [17]: < 0.2 µg/mL
- MIC (Proteus rettgeri GN311; GN311, 18 h): 6.25 µg/mL (≈ 13.8 µM)
- MIC ([18]; Pseudomonas aeruginosa, 99, 18 h): 50 µg/mL (≈ 111 µM)
- MIC (Sarcina lutea PCI 1001; PCI1001, 18 h): 100 µg/mL (≈ 221 µM)
- MIC ([19]; 18 h): 100 µg/mL (≈ 221 µM)
- MIC (Escherichia coli NIHJ; [30]): 1.56 µg/mL (≈ 3.45 µM)
- MIC [20]: 12.5 µg/mL (≈ 27.7 µM)
- MIC ([21]; ATCC607, nutrient agar, 37° C., 18 hours, read-out: MIC): 1.56 µg/mL (≈ 3.45 µM)
- MIC [22]: 25 µg/mL (≈ 55.4 µM)
- MIC [23]: 100 µg/mL (≈ 221 µM)
- MIC ([24]; Corynebacterium bovis, 1810, 18 h): 50 µg/mL (≈ 111 µM)
- MIC [25]: 100 µg/mL (≈ 221 µM)
- MIC [26]: 3.13 µg/mL (≈ 6.93 µM)
- MIC ([27]; H9, 18 h): 6.25 µg/mL (≈ 13.8 µM)
- MIC (Bacillus anthracis): < 0.2 µg/mL
- MIC [28]: 1.56 µg/mL (≈ 3.45 µM)
- MIC (Escherichia coli JR255): > 100 µg/mL
- MIC ([29]; K12ML1410, nutrient agar, 37° C., 18 hours, read-out: MIC): 1.56 µg/mL (≈ 3.45 µM)
